Assay results as given in the supplement of paper PMC10307832.

Assays:
Test in all cases: relative viability (nuclei count vs DMSO), 5 days (fraction); higher = more cells survive
NCI-H596 = test system: NCI-H596
Procedure, shortened: (§1)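 Dosing by pin tool came one day after lung cancer cell lines were seeded in 1536-well plates, using either one drug or a fixed anchor-drug dose plus five library-drug doses (not always all listed) in √10 steps. After 5 days, nuclei were counted on 4× images. Relative viability is treated-well nuclei count divided by vehicle-well nuclei count, and values are medians of duplicate plates.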

LCLC-97TM1 = test system: LCLC-97TM1
Procedure, shortened: as §1

NCI-H520 = test system: NCI-H520
Procedure, shortened: as §1

NCI-H1650 = test system: NCI-H1650
Procedure, shortened: as §1

NCI-H2087 = test system: NCI-H2087
Procedure, shortened: as §1

ABC-1 = test system: ABC-1
Procedure, shortened: as §1

CAL-12T = test system: CAL-12T
Procedure, shortened: as §1

NCI-H1651 = test system: NCI-H1651
Procedure, shortened: as §1

NCI-H2023 = test system: NCI-H2023
Procedure, shortened: as §1

A-427 = test system: A-427
Procedure, shortened: as §1

NCI-H460 = test system: NCI-H460
Procedure, shortened: as §1

PC-3 [JPC-3] = test system: PC-3 [JPC-3]
Procedure, shortened: as §1

BEN = test system: BEN
Procedure, shortened: as §1

LC-2-ad = test system: LC-2-ad
Procedure, shortened: as §1

H3255 = test system: H3255
Procedure, shortened: as §1

NCI-H727 = test system: NCI-H727
Procedure, shortened: as §1

NCI-H1944 = test system: NCI-H1944
Procedure, shortened: as §1

NCI-H661 = test system: NCI-H661
Procedure, shortened: as §1

NCI-H650 = test system: NCI-H650
Procedure, shortened: as §1

NCI-H441 = test system: NCI-H441
Procedure, shortened: as §1

201T = test system: 201T
Procedure, shortened: as §1

NCI-H1915 = test system: NCI-H1915
Procedure, shortened: as §1

With O=c1cc(N2CCOCC2)oc2c(-c3cccc4c3sc3ccccc34)cccc12 + C[C@@H](Oc1cc(-c2cnn(C3CCNCC3)c2)cnc1N)c1c(Cl)ccc(F)c1Cl [Crizotinib] (partner 1 µM) the relative viability (NCI-H596; first compound 0.01 µM) was 0.992, the relative viability (NCI-H596; first compound 0.03162 µM) was 0.997 and the relative viability (NCI-H596; first compound 0.1 µM) was 0.907. It also gave a relative viability (NCI-H596; first compound 0.3162 µM) of 0.948, a relative viability (NCI-H596; first compound 1 µM) of 0.882 and a relative viability (LCLC-97TM1; first compound 0.01 µM) of 0.444. For the same compound, the relative viability (LCLC-97TM1; first compound 0.03162 µM) was 0.339, the relative viability (LCLC-97TM1; first compound 0.3162 µM) was 0.281 and the relative viability (LCLC-97TM1; first compound 1 µM) was 0.39. For the same compound, the relative viability (NCI-H520; first compound 0.01 µM) was 0.824, the relative viability (NCI-H520; first compound 0.03162 µM) was 0.739 and the relative viability (NCI-H520; first compound 0.1 µM) was 1.04. It also gave a relative viability (NCI-H520; first compound 0.3162 µM) of 0.697, a relative viability (NCI-H520; first compound 1 µM) of 0.825 and a relative viability (NCI-H1650; first compound 0.03162 µM) of 0.906. It also gave a relative viability (NCI-H1650; first compound 0.1 µM) of 0.872, a relative viability (NCI-H1650; first compound 0.3162 µM) of 0.826 and a relative viability (NCI-H1650; first compound 1 µM) of 0.921. It also gave a relative viability (NCI-H2087; first compound 0.01 µM) of 0.884, a relative viability (NCI-H2087; first compound 0.03162 µM) of 1.07 and a relative viability (NCI-H2087; first compound 0.1 µM) of 0.84. The relative viability (NCI-H2087; first compound 0.3162 µM) was 0.682, the relative viability (NCI-H2087; first compound 1 µM) was 0.838 and the relative viability (ABC-1; first compound 0.01 µM) was 1.26. It also gave a relative viability (ABC-1; first compound 0.03162 µM) of 0.654, a relative viability (ABC-1; first compound 0.1 µM) of 0.983 and a relative viability (ABC-1; first compound 0.3162 µM) of 1.06. For the same compound, the relative viability (ABC-1; first compound 1 µM) was 1.11, the relative viability (CAL-12T; first compound 0.01 µM) was 0.58 and the relative viability (CAL-12T; first compound 0.03162 µM) was 0.657. The relative viability (CAL-12T; first compound 0.1 µM) was 0.767, the relative viability (CAL-12T; first compound 0.3162 µM) was 0.591 and the relative viability (CAL-12T; first compound 1 µM) was 0.775. The relative viability (NCI-H1651; first compound 0.01 µM) was 0.878, the relative viability (NCI-H1651; first compound 0.03162 µM) was 0.92 and the relative viability (NCI-H1651; first compound 0.1 µM) was 0.948. The relative viability (NCI-H1651; first compound 0.3162 µM) was 0.853, the relative viability (NCI-H1651; first compound 1 µM) was 0.859 and the relative viability (NCI-H2023; first compound 0.01 µM) was 0.574. The relative viability (NCI-H2023; first compound 0.03162 µM) was 0.589, the relative viability (NCI-H2023; first compound 0.1 µM) was 0.663 and the relative viability (NCI-H2023; first compound 0.3162 µM) was 0.616. The relative viability (NCI-H2023; first compound 1 µM) was 0.586, the relative viability (A-427; first compound 0.01 µM) was 0.983 and the relative viability (A-427; first compound 0.03162 µM) was 0.851. It also gave a relative viability (A-427; first compound 0.1 µM) of 0.807, a relative viability (A-427; first compound 0.3162 µM) of 0.787 and a relative viability (A-427; first compound 1 µM) of 0.925. The relative viability (NCI-H460; first compound 0.01 µM) was 0.822, the relative viability (NCI-H460; first compound 0.03162 µM) was 0.99 and the relative viability (NCI-H460; first compound 0.1 µM) was 0.988. The relative viability (NCI-H460; first compound 0.3162 µM) was 1.1, the relative viability (NCI-H460; first compound 1 µM) was 0.922 and the relative viability (PC-3 [JPC-3]; first compound 0.01 µM) was 0.931. For the same compound, the relative viability (PC-3 [JPC-3]; first compound 0.03162 µM) was 0.903, the relative viability (PC-3 [JPC-3]; first compound 0.1 µM) was 0.938 and the relative viability (PC-3 [JPC-3]; first compound 0.3162 µM) was 0.941. It also gave a relative viability (PC-3 [JPC-3]; first compound 1 µM) of 1.01, a relative viability (BEN; first compound 0.01 µM) of 0.853 and a relative viability (BEN; first compound 0.03162 µM) of 0.892. The relative viability (BEN; first compound 0.1 µM) was 0.877, the relative viability (BEN; first compound 0.3162 µM) was 0.951 and the relative viability (BEN; first compound 1 µM) was 0.893. It also gave a relative viability (LC-2-ad; first compound 0.01 µM) of 0.492, a relative viability (LC-2-ad; first compound 0.03162 µM) of 0.427 and a relative viability (LC-2-ad; first compound 0.1 µM) of 0.487. The relative viability (LC-2-ad; first compound 0.3162 µM) was 0.397, the relative viability (LC-2-ad; first compound 1 µM) was 0.537 and the relative viability (H3255; first compound 0.01 µM) was 0.871. The relative viability (H3255; first compound 0.03162 µM) was 1.05, the relative viability (H3255; first compound 0.1 µM) was 0.971 and the relative viability (H3255; first compound 0.3162 µM) was 0.926. It also gave a relative viability (H3255; first compound 1 µM) of 0.769, a relative viability (NCI-H727; first compound 0.01 µM) of 0.887 and a relative viability (NCI-H727; first compound 0.03162 µM) of 0.893. The relative viability (NCI-H727; first compound 0.1 µM) was 0.751, the relative viability (NCI-H727; first compound 0.3162 µM) was 0.734 and the relative viability (NCI-H727; first compound 1 µM) was 0.932. The relative viability (NCI-H1944; first compound 0.01 µM) was 1.05, the relative viability (NCI-H1944; first compound 0.03162 µM) was 1.03 and the relative viability (NCI-H1944; first compound 0.1 µM) was 1.18. It also gave a relative viability (NCI-H1944; first compound 0.3162 µM) of 1.03, a relative viability (NCI-H1944; first compound 1 µM) of 1.04 and a relative viability (NCI-H661; first compound 0.01 µM) of 1.06. For the same compound, the relative viability (NCI-H661; first compound 0.03162 µM) was 0.983, the relative viability (NCI-H661; first compound 0.1 µM) was 0.927 and the relative viability (NCI-H661; first compound 0.3162 µM) was 0.817. For the same compound, the relative viability (NCI-H661; first compound 1 µM) was 0.92, the relative viability (NCI-H650; first compound 0.01 µM) was 0.738 and the relative viability (NCI-H650; first compound 0.03162 µM) was 0.82. The relative viability (NCI-H650; first compound 0.3162 µM) was 0.868, the relative viability (NCI-H650; first compound 1 µM) was 0.587 and the relative viability (NCI-H441; first compound 0.01 µM) was 0.841. For the same compound, the relative viability (NCI-H441; first compound 0.03162 µM) was 0.785, the relative viability (NCI-H441; first compound 0.1 µM) was 1.09 and the relative viability (NCI-H441; first compound 0.3162 µM) was 0.679. For the same compound, the relative viability (NCI-H441; first compound 1 µM) was 0.756, the relative viability (201T; first compound 0.01 µM) was 1 and the relative viability (201T; first compound 0.03162 µM) was 1.01. It also gave a relative viability (201T; first compound 0.1 µM) of 0.981, a relative viability (201T; first compound 0.3162 µM) of 1.01 and a relative viability (201T; first compound 1 µM) of 1.03. For the same compound, the relative viability (NCI-H1915; first compound 0.01 µM) was 0.875, the relative viability (NCI-H1915; first compound 0.03162 µM) was 0.879 and the relative viability (NCI-H1915; first compound 0.1 µM) was 0.939. It also gave a relative viability (NCI-H1915; first compound 0.3162 µM) of 0.876 and a relative viability (NCI-H1915; first compound 1 µM) of 0.933.
